Consider 39 molecules from US11472798B2 (Mission Therapeutics Limited, priority 2014, dated 2022).

In the test the target is T1, UCHL1 (Homo sapiens, UniProt P09936).
T1 construct: made in house; host or cells: HEK293T
T1 sequence (P09936 1-223): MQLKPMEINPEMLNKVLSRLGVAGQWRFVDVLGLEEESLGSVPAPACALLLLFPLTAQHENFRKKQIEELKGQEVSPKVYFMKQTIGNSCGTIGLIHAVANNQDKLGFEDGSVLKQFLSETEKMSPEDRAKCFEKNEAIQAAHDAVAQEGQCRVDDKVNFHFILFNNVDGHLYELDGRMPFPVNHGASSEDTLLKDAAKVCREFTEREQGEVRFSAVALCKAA
The test can be described thus: UCHL1 biochemical IC50 assay (fluorescence polarisation). The note with it: 30 min enzyme/compound pre-incubation at room temp, read after 2 hr incubation, read-out: Activity range (UCHL1 biochemical IC50 assay). The method, boiled down: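 FLAG-UCHL1 purified from transfected HEK293T cells was preincubated 30 min at room temperature with compound (8 points, 100–0.03 μM final) in Tris pH 7.5 buffer with Tween 20, BSA and beta-mercaptoethanol. Reaction started with 50 nM TAMRA-peptide–ubiquitin isopeptide substrate; fluorescence polarisation (ex 540/em 590 nm) read at once and after 2 h.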
For the molecule `N#CN1CCC(C(=O)Nc2ncc(-c3cccnc3)s2)C1` (stereo not drawn) [Example 112, 1-cyano-N-(5-(pyridin-3-yl)thiazol-2-yl)pyrrolidine-3-carboxamide], the IC50 was < 1000 nM.

With `Cc1noc(C)c1-c1cnc2nc(NC(=O)[C@H]3CCN(C#N)C3)sc2c1` [Example 285, (S)-1-cyano-N-(6-(3,5-dimethylisoxazol-4-yl)thiazolo[4,5-b]pyridin-2-yl)pyrrolidine-3-carboxamide], the IC50 was in the range of 1000 to 10000 nM.

Regarding `N#CN1CC[C@H](C(=O)Nc2ncc(N3CCCCC3)s2)C1` [Example 96, (S)-1-cyano-N-(5-(piperidin-1-yl)thiazol-2-yl)pyrrolidine-3-carboxamide], the IC50 is < 1000 nM.

On to `COCC1(C(=O)Nc2ncc(-c3ccccc3)s2)CCN(C#N)C1` (stereo not drawn) [Example 80, I-cyano-3-(methoxymethyl)-N-(5-phenylthiazol-2-yl)pyrrolidine-3-carboxamide], for which the IC50 lay within 10000 to 30000 nM.

In the case of `N#CN1CCC(C(=O)Nc2nc(-c3ccccc3)cs2)C1` (stereo not drawn) [Example 9, 1-cyano-N-(4-phenylthiazol-2-yl)pyrrolidine-3-carboxamide], the IC50 is 10000 to 30000 nM.

As for `N#CN1CC[C@H](C(=O)Nc2cn(-c3cccc4[nH]ncc34)cn2)C1` [Example 303, (S)-N-(1-(1H-indazol-4-yl)-1H-imidazol-4-yl)-1-cyanopyrrolidine-3-carboxamide], the IC50 is < 1000 nM.

In the case of `CC(=O)NCC1CCCCN1c1cnc(NC(=O)C2CCN(C#N)C2)s1` (stereo not drawn) [Example 93, N-(5-(2-(acetamidomethyl)piperidin-1-yl)thiazol-2-yl)-1-cyanopyrrolidine-3-carboxamide], the 50% inhibitory concentration (IC50) was < 1000 nM.

On to `Cc1cccc(-c2ccc(NC(=O)C3CCN(C#N)C3)nc2)c1` (stereo not drawn) [Example 135, 1-cyano-N-(5-(m-tolyl)pyridin-2-yl)pyrrolidine-3-carboxamide], for which the IC50 lay in the range of 1000 to 10000 nM.

As for `N#CN1CC[C@H](C(=O)Nc2cc(-c3cccc4[nH]ncc34)ccn2)C1` [Example 262, (S)—N-(4-(1H-indazol-4-yl)pyridin-2-yl)-1-cyanopyrrolidine-3-carboxamide], the IC50 is < 1000 nM.

Take `COc1cc(-n2cnc(NC(=O)[C@H]3CCN(C#N)C3)c2)ccc1F` [Example 302, (S)-1-cyano-N-(1-(4-fluoro-3-methoxyphenyl)-1H-imidazol-4-yl)pyrrolidine-3-carboxamide]: the concentration for half-maximal inhibition (IC50) was < 1000 nM.

As to `C[C@@H]1CN(C#N)C[C@H]1C(=O)Nc1cn([C@@H](C)c2ccccc2)cn1` [Example 173, (3S,4S)-1-cyano-4-methyl-N-(1-((S)-1-phenylethyl)-1H-imidazol-4-yl)pyrrolidine-3-carboxamide], the IC50 was < 1000 nM.

Regarding `N#CN1CC[C@H](C(=O)Nc2ncc(-c3cccc(-n4cccn4)c3)s2)C1` [Example 218, (S)-N-(5-(3-(1H-pyrazol-1-yl)phenyl)thiazol-2-yl)-1-cyanopyrrolidine-3-carboxamide], the IC50 was < 1000 nM.

As for `CN1CCCC(n2cnc(NC(=O)[C@H]3CCN(C#N)C3)c2)C1` (stereo partly drawn) [Example 187, (3S)-1-cyano-N-(1-(1-methylpiperidin-3-yl)-1H-imidazol-4-yl)pyrrolidine-3-carboxamide], the IC50 is < 1000 nM.

With `Cc1noc(C)c1Cn1cnc(NC(=O)[C@H]2CCN(C#N)C2)c1` [Example 171, (S)-1-cyano-N-(1-((3,5-dimethylisoxazol-4-yl)methyl)-1H-imidazol-4-yl)pyrrolidine-3-carboxamide], the IC50 lay within 1000 to 10000 nM.

Take `CC(C)S(=O)(=O)N1CCc2nc(NC(=O)[C@H]3CCN(C#N)C3)sc2C1` [Example 203, (S)-1-cyano-N-(5-(isopropylsulfonyl)-4,5,6,7-tetrahydrothiazolo[5,4-c]pyridin-2-yl)pyrrolidine-3-carboxamide]: the IC50 was < 1000 nM.

With `N#CN1CC[C@H](C(=O)Nc2ccc(-c3ccccc3)cn2)C1` [Example 54, (S)-1-cyano-N-(5-phenylpyridin-2-yl)pyrrolidine-3-carboxamide], the IC50 was in the range of 1000 to 10000 nM.

In the case of `N#CN1CCC(C(=O)Nc2ncc(N3CCc4ccccc43)s2)C1` (stereo not drawn) [Example 95, 1-cyano-N-(5-(indolin-1-yl)thiazol-2-yl)pyrrolidine-3-carboxamide], the IC50 was < 1000 nM.

As for `Cc1cccc2sc(NC(=O)[C@H]3CCN(C#N)C3)nc12` [Example 46, (S)-1-cyano-N (4-methylbenzo[d]thiazol-2-yl)pyrrolidine-3-carboxamide], the IC50 is 10000 to 30000 nM.

Turning to `CS(=O)(=O)Nc1cccc(-c2cnc(NC(=O)C3CCN(C#N)C3)s2)c1` (stereo not drawn) [Example 116, 1-cyano-N-(5-(3-(methyl-sulfonamido)phenyl)thiazol-2-yl)pyrrolidine-3-carboxamide], the IC50 was < 1000 nM.

As to `COc1ccc(NC(=O)C2CCN(C#N)C2)nc1` (stereo not drawn) [Example 27, 1-cyano-N-(5-methoxy-pyridin-2-yl)pyrrolidine 3-carboxamide], the IC50 lay in the range of 10000 to 30000 nM.

Turning to `CC[C@@H]1CN(C#N)C[C@H]1C(=O)Nc1ncc(-c2ccccc2)s1` (racemic) [Example 86, (±)-1-cyano-4-ethyl-N-(5-phenylthiazol-2-yl)pyrrolidine-3-carboxamide], the 50% inhibitory concentration (IC50) was < 1000 nM.

Take `N#CN1CC[C@H](C(=O)Nc2ncc(N3CCNC(=O)CC3)s2)C1` [Example 101, (S)-1-cyano-N-(5-(5-oxo-1,4-diazepan-1-yl)thiazol-2-yl)pyrrolidine-3-carboxamide]: the IC50 is < 1000 nM.

Consider `C[C@H]1[C@@H](C(=O)Nc2cc(-c3ccccc3)[nH]n2)CCN1C#N` [Example 75, (2S,3S)-1-cyano-2-methyl-N-(5-phenyl-1H-pyrazol-3-yl)pyrrolidine-3-carboxamide], for which the IC50 is < 1000 nM.

Regarding `CC(C)C(=O)N1CCc2nc(NC(=O)[C@H]3CCN(C#N)C3)sc2C1` [Example 190, (S)-1-cyano-N-(5-isobutyryl-4,5,6,7-tetrahydrothiazolo[5,4-c]pyridin-2-yl)pyrrolidine-3-carboxamide], the IC50 was < 1000 nM.

Turning to `CC1(C(=O)Nc2ncc(-c3ccccc3)s2)CCN(C#N)C1` (stereo not drawn) [Example 78, 1-cyano-3-methyl-N-(5-phenylthiazol-2-yl)pyrrolidine-3-carboxamide], the half-maximal inhibitory concentration (IC50) lay in the range of 1000 to 10000 nM.

Turning to `Cc1noc(C)c1-c1ccc2cnc(NC(=O)[C@H]3CCN(C#N)C3)cc2c1` [Example 261, (S)-1-cyano-N-(6-(3,5-dimethylisoxazol-4-yl)isoquinolin-3-yl)pyrrolidine-3-carboxamide], the IC50 is < 1000 nM.

`COCCOc1ccc(C#N)c(-n2cnc(NC(=O)[C@H]3CCN(C#N)C3)c2)c1` [Example 244, (S)-1-cyano-N-(1-(2-cyano-5-(2-methoxyethoxy)phenyl)-1H-imidazol-4-yl)pyrrolidine-3-carboxamide]: the IC50 is < 1000 nM.

Regarding `N#CN1CC[C@H](C(=O)Nc2nc3c(s2)CN(C(=O)c2ccccc2)CC3)C1` [Example 191, (S)—N-(5-benzoyl-4,5,6,7-tetrahydrothiazolo[5,4-c]pyridin-2-yl)-1-cyanopyrrolidine-3-carboxamide], the concentration for half-maximal inhibition (IC50) was < 1000 nM.

On to `C[C@H]1[C@@H](C(=O)Nc2ncc(-c3ccccc3Cl)s2)CCN1C#N` [Example 77, (2S,3S)—N-(5-(2-chlorophenyl)thiazol-2-yl)-1-cyano-2-methylpyrrolidine-3-carboxamide], for which the concentration for half-maximal inhibition (IC50) is 1000 to 10000 nM.

On to `N#CN1CC[C@H](C(=O)Nc2cnc3ccccc3c2)C1` [Example 272, (S)-1-cyano-N-(quinolin-3-yl)pyrrolidine-3-carboxamide], for which the IC50 lay in the range of 1000 to 10000 nM.

For the molecule `C[C@H]1[C@@H](C(=O)Nc2ncc(C3CCOCC3)s2)CCN1C#N` [Example 76, (2S,3S)-1-cyano-2-methyl-N-(5-(tetrahydro-2H-pyran-4-yl)thiazol-2-yl)pyrrolidine-3-carboxamide], the IC50 was < 1000 nM.

Turning to `Cc1cccc(-n2cnc(NC(=O)[C@H]3CCN(C#N)C3)c2)n1` [Example 175, (S)-1-cyano-N-(1-(6-methylpyridin-2-yl)-1H-imidazol-4-yl)pyrrolidine-3-carboxamide], the concentration for half-maximal inhibition (IC50) fell in the range of 1000 to 10000 nM.

For the molecule `N#CN1CC[C@H](C(=O)Nc2cc(-c3cccc4nccn34)ccn2)C1` [Example 253, (S)-1-cyano-N-(4-(imidazo[1,2-a]pyridin-5-yl)pyridin-2-yl)pyrrolidine-3-carboxamide], the IC50 is < 1000 nM.

For `N#CN1CC[C@H](C(=O)Nc2ncc(-c3ccccc3)s2)C1` [Example 1, (S)-1-cyano-N-(5-phenylthiazol-2-yl)pyrrolidine-3-carboxamide], the IC50 was < 1000 nM.

For the molecule “(S)-1-cyano-N-(isoquinolin-yl)pyrrolidine-3-carboxamide [Example 58]”, the IC50 fell in the range of 1000 to 10000 nM.

For `N#CN1CC[C@H](C(=O)Nc2cc(-c3ccccc3)[nH]n2)C1` [Example 42, (S)-1-cyano-N-(5-phenyl-1H-pyrazol-3-yl)pyrrolidine-3-carboxamide], the concentration for half-maximal inhibition (IC50) was < 1000 nM.

For the molecule `N#CN1CC[C@@H](C(=O)Nc2ncc(N3CCOCC3)s2)C1` [Example 102, (R)-1-cyano-N-(5-morpholinothiazol-2-yl)pyrrolidine-3-carboxamide], the IC50 was 1000 to 10000 nM.

Take `Cc1noc(C)c1-c1ccc2nc(NC(=O)[C@H]3CCN(C#N)C3)sc2n1` [Example 286, (S)-1-cyano-N-(5-(3,5-dimethylisoxazol-4-yl)thiazolo[5,4-b]pyridin-2-yl)pyrrolidine-3-carboxamide]: the IC50 is < 1000 nM.

In the case of `CC(C)Cn1cnc(NC(=O)[C@H]2CCN(C#N)C2)c1` [Example 148, (S)-1-cyano-N-(1-isobutyl-1H-imidazol-4-yl)pyrrolidine-3-carboxamide], the IC50 was in the range of 1000 to 10000 nM.
